The text below walks through data of patent US9751851B2, “Molecules and compositions that inhibit gram negative bacteria and their uses” (THE TRUSTEES OF PRINCETON UNIVERSITY, priority 2013, dated 2017).

For this experiment, the system named is wild-type P. aeruginosa PA14. The experiment can be described thus: microbe, parasite or virus in culture. It counts as cell-based. The following applies: for inhibition at 100 µM / Efficacy (%): reduction of pyocyanin vs WT P. aeruginosa PA14: 0% = WT level, 100% = background medium; for inhibition of pyocyanin production (in words): wild-type P. aeruginosa PA14, end point assays at 100 μM; for IC50: read-out: IC50 for inhibition of pyocyanin production. As to the method:
Methods. The oxidized form of pyocyanin imparts a green color to P. aeruginosa cultures, making the production of pyocyanin convenient to monitor by UV/Vis absorbance. Overnight P. aeruginosa cultures were subcultured into 5 mL fresh medium at 1:1000 dilution. Synthetic compounds were assayed at 100 μM for end point assays and at concentrations ranging from 200 nM to 200 μM for titrations following 17 hr of aerobic growth with shaking at 37° C. Cells were separated from culture fluids via centrifugation at 13,000 rpm for 15 min. Culture fluids were passed through 0.22 μm syringe driven filters (Millipore). Cell-free culture fluids were analyzed for pyocyanin using wavelength scans on a Beckman Coulter DU-800 spectrophotometer from 200 nm to 800 nm 695 nm was chosen for graphical representation. Titration data were fit with a variable-slope sigmoidal dose-response curve using GraphPad Prism to determine the IC50 values.
The compounds of the first library were assayed in wild-type (WT) P. aeruginosa PA14. Pyocyanin was used as a read-out for quorum sensing activity based on its absorbance at 695 nm. The efficacy of the compounds at reducing pyocyanin levels was calculated with respect to WT levels of pyocyanin, where WT levels of pyocyanin would lead to a 0% efficacy, and an absorbance equal to the background medium would lead to a 100% efficacy. Agonists that increase pyocyanin production have negative efficacy values.

[1] abbreviates: Pseudomonas aeruginosa, PA14, 17 h, read-out: Efficacy (%), Table 4.
Where [2] appears, read: Pseudomonas aeruginosa, PA14, 17 h, read-out: Efficacy (%), Table 2, negative = agonist.
The mark [3] stands for this setting: Pseudomonas aeruginosa, PA14, 17 h, read-out: Efficacy (%), Table 3.
Where [4] appears, read: Pseudomonas aeruginosa, PA14, 17 h, read-out: Efficacy (%), Table 1, negative = agonist.
[5] abbreviates: WT P. aeruginosa PA14, 17 hr growth, titration.

Read-outs that look alike come from different tables or passages of the source.

For `O=C(COc1cccc(C(F)(F)F)c1)Nc1ccnc(C(F)(F)F)c1` [S75, 4-amino-2-trifluoromethylpyridine-C6-3-trifluoromethylphenoxyhybrid], the inhibition at 100 µM under setting [1] was 59 ± 3%. On to `CCCCCCCCCCCCNC(=O)c1c[nH]c2ccccc12` [S33, C12-3-amidoindole], for which the inhibition at 100 µM under setting [2] was determined as 4.4 ± 3%. Regarding `O=C(COc1ccc(F)cc1F)Nc1ccnc(C(F)(F)F)c1` [S70, 4-amino-2-trifluoromethylpyridine-C6-2,4-bisfluorophenoxyhybrid], the inhibition at 100 µM under setting [1] came out at 49 ± 3%. Regarding `CCCCCCCCCCCC(=O)Nc1ccnc(Br)c1` [S17, C12-4-amino-2-bromopyridine], under setting [2], the inhibition at 100 µM worked out at 34 ± 5%. With `O=C(COc1cccc(Br)c1)Nc1ccncn1` [S51, 4-aminopyrimidine-C6-3-bromophenoxyhybrid], the inhibition at 100 µM under setting [3] was determined as 27 ± 7%. Regarding `O=C(COc1cccc(Br)c1)Nc1ccnc(C(F)(F)F)c1` [S56, 4-amino-2-trifluoromethylpyridine-C4-3-bromophenoxyhybrid], under “Table 3, listed as drawing 74”, the “Efficacy (%)” value came out at 43 ± 8%. For the molecule `O=C(COc1ccc(F)cc1)Nc1ccnc(C(F)(F)F)c1` [S68, 4-amino-2-trifluoromethylpyridine-C6-4-fluorophenoxyhybrid], the inhibition at 100 µM under setting [1] is 54%. The “Efficacy (%)” value (Table 4) is reported as 54 ± 4%.

For `O=C(COc1cccc(Br)c1)Nc1cccc(C(F)(F)F)c1` [S59, 1-amino-3-trifluoromethyl-C6-3-bromophenoxyhybrid], under setting [3], the inhibition at 100 µM worked out at 62%. Besides, the “Efficacy (%)” value (Table 3) worked out at 62 ± 6%. Turning to `CCCCCCCCCCCC(=O)Nc1ccncc1` [S8, C12-4-aminopyridine], the inhibition at 100 µM under setting [4] was 28 ± 11%. As to `CCCCCCOC(=O)C1COc2ccccc21` (stereo not shown) [S28, C6-dihydrobenzofuran ester], under setting [2], the inhibition at 100 µM was determined as 1.5 ± 8%.

With `COc1cc(NC(=O)COc2cccc(Br)c2)ccn1` [S50, 4-amino-2-methoxypyridine-C8-3-bromophenoxyhybrid], the “Efficacy (%)” value was determined as 60% (Table 3, listed as Table 3 entry 10) and 60 ± 2% (Table 3, listed as drawing 68).

As for `CCCCCCCCCCCC(=O)Nc1ccnc(C(F)(F)F)c1` [S20, C12-4-amino-2-trifluoromethylpyridine], under setting [2], the inhibition at 100 µM stood at 27 ± 3%. As for `O=C(COc1cccc(Br)c1)Nc1ccncc1C(F)(F)F` [S62, 4-amino-3-trifluoromethylpyridine-C6-3-bromophenoxyhybrid], the inhibition at 100 µM under setting [3] was 15%. Besides, the “Efficacy (%)” value (Table 3) is on record as 15 ± 7%.

As for `CCCCCCCCCCCC(=O)Nc1ccc2oc3c(c2c1)CCCC3` [S35, C12-2-amino-tetrahydrodibenzofuran], the inhibition at 100 µM under setting [2] worked out at 6.1 ± 4%. For `CCCCCCCCCCCC(=O)Nc1cc(C)nc2ccccc12` [S13, C12-4-amino-2-methylquinoline], under setting [2], the inhibition at 100 µM is -24 ± 2%. Take `CCCCCCCCCCCC(=O)OCc1ccncc1` [S23, C12-4-(hydroxymethyl)pyridine]: the inhibition at 100 µM under setting [2] is -15 ± 4%. Turning to `CCCCCCCCCCCCNC(=O)c1cc2ccccc2n1C` [S32, C12-2-amido-1-methylindole], under setting [2], the inhibition at 100 µM was -9.2 ± 4%.

Consider `O=C(CCc1ccc(Br)cc1)N[C@H]1CCOC1=O` [B7, reference compound], for which the “inhibition of pyocyanin production (in words)” value (“inhibition … (in words)” for short) was “limited or no inhibition”. For “chlorothiolactone [CTL, reference compound]”, the “inhibition … (in words)” value was “Neither CL nor CTL inhibited pyocyanin production”.

As for `O=C(CCCCCCc1cccc(F)c1)Nc1ccnc(C(F)(F)F)c1` [S83, 7-(3-fluorophenyl)-N-(2-(trifluoromethyl)pyridin-4-yl)heptanamide], the inhibition at 100 µM under setting [1] worked out at 96%. Besides, for the setting “Table 4”, the “Efficacy (%)” value is on record as 96 ± 4%.

For `COc1cc(NC(=O)COc2cccc(Br)c2)ccn1` [S44, 4-amino-2-methoxypyridine-C5-3-bromophenoxyhybrid], the “Efficacy (%)” value runs as follows: (Table 3, listed as Table 3 entry 6) 81%; (Table 3, listed as drawing 64) 81 ± 6%. For `O=C(COc1cccc(Cl)c1)Nc1ccnc(C(F)(F)F)c1` [S67, 4-amino-2-trifluoromethylpyridine-C6-3-chlorophenoxyhybrid], the inhibition at 100 µM under setting [1] stood at 101%. The “Efficacy (%)” value (Table 4) was determined as 101 ± 3%. Consider `O=C(CCCOc1cccc(Br)c1)N[C@@H]1CCSC1=O` [(R)-mBTL], for which the half-inhibitory concentration (IC50) under setting [5] was found to be 100 µM. For the molecule `O=C(CSc1cccc(F)c1)Nc1ccnc(C(F)(F)F)c1` [S79, 4-amino-2-trifluoromethylpyridine-C6-3-fluoroarylsulfide hybrid], the inhibition at 100 µM under setting [1] worked out at 94%. Moreover, the “Efficacy (%)” value (Table 4) was 94 ± 4%.

As to `O=C(COc1cccc([N+](=O)[O-])c1)Nc1ccnc(C(F)(F)F)c1` [S73, 4-amino-2-trifluoromethylpyridine-C6-3-nitrophenoxyhybrid], the inhibition at 100 µM under setting [1] was found to be 39 ± 36%. For the molecule `CCCCCCCCCC(=O)CC(=O)Nc1ccnc(OC)c1` [S16, 3OC12-4-amino-2-methoxypyridine], the inhibition at 100 µM under setting [2] came out at 24 ± 1%.

`COc1cc(NC(=O)CC(=O)COc2cccc(Br)c2)ccn1` [S46, 4-amino-2-methoxypyridine-3OC6-3-bromophenoxyhybrid]: the inhibition at 100 µM under setting [3] was determined as 40%. Also, under “Table 3”, the “Efficacy (%)” value was determined as 40 ± 6%. For the molecule `CCCCCCCCCCCC(=O)Nc1ccnc(C)c1` [S12, C12-4-amino-2-methylpyridine], under setting [2], the inhibition at 100 µM was -19 ± 3%.

With `O=C(CCCCCCCCCCN=C=S)CC(=O)NC1CCOC1=O` (stereo not shown) [itc-13, reference compound], the IC50 under setting [5] came to 56 µM. Take `O=C(COc1cccc(F)c1)Nc1ccnc(C(F)(F)F)c1` [compound 17, 4-amino-2-trifluoromethylpyridine-C6-3-fluorophenoxyhybrid]: the “inhibition … (in words)” value is given as “highly effective at blocking pyocyanin production”. Besides, the inhibition at 100 µM under setting [1] is 103%. The “Efficacy (%)” value (Table 4) came to 103 ± 3%. Consider `CCCCCCCCCCCC(=O)Nc1ccc2c(c1)c1ccccc1n2CC` [S30, C12-3-amino-1-ethylcarbazole], for which the inhibition at 100 µM under setting [2] is -1 ± 3%. For the molecule `O=C(COc1cccc(Br)c1)Nc1ccncc1` [S37, 4-aminopyridine-C4-3-bromophenoxyhybrid], for the setting “Table 3, listed as drawing 59”, the “Efficacy (%)” value was found to be 21 ± 5%. Turning to `COc1cc(NC(=O)COc2cccc(Br)c2)ccn1` [S42, 4-amino-2-methoxypyridine-C4-3-bromophenoxyhybrid], the “Efficacy (%)” value (Table 3, listed as drawing 63) was 20 ± 1%. As for `O=C(COc1ccccc1O)Nc1ccnc(C(F)(F)F)c1` [S78, 4-amino-2-trifluoromethylpyridine-C6-2-hydroxyphenoxyhybrid], the inhibition at 100 µM under setting [1] is 95%. Also, the “Efficacy (%)” value (Table 4) is reported as 95 ± 4%.

Take `O=C(CCCCC#Cc1cccc(F)c1)Nc1ccnc(C(F)(F)F)c1` [S82, 7-(3-fluorophenyl)-N-(2-(trifluoromethyl)pyridin-4-yl)hept-6-ynamide]: under setting [1], the inhibition at 100 µM came out at 97%. Moreover, where the note is “Table 4”, the “Efficacy (%)” value turned out to be 97 ± 4%. Turning to `CCCCCCCCCC(=O)CC(=O)Nc1ccncc1` [compound 14, 3OC12-4-aminopyridine], the inhibition at 100 µM under setting [4] amounted to 63 ± 2%. The IC50 (Pseudomonas aeruginosa, PA14, 17 h) was determined as 0.16 µM. Regarding `CCCCCCCCCCCC(=O)Nc1cccnc1` [S7, C12-3-aminopyridine], the inhibition at 100 µM under setting [4] stood at 34 ± 3%. Regarding `CCCCCCCCCC(=O)CC(=O)Nc1ccccn1` [S1, 3OC12-2-aminopyridine], the inhibition at 100 µM under setting [4] amounted to 44 ± 13%. Regarding `O=C(COc1cccc(Br)c1)Nc1ccnc(C(F)(F)F)c1` [S57, 4-amino-2-trifluoromethylpyridine-C5-3-bromophenoxyhybrid], the “Efficacy (%)” value by setting is: (Table 3, listed as Table 3 entry 17) 95%; (Table 3, listed as drawing 75) 95 ± 5%. Regarding `CCCCCCCCCC(=O)CC(=O)Nc1cnccn1` [S4, 3OC12-2-aminopyrazine], the inhibition at 100 µM under setting [4] is 21 ± 13%.
